Assay results reported in patent US20080076762A1, “Novel 4-Aminopiperidine Derivatives” (priority 2004, published 2008).

Key:
[1] = target: plasmepsin II (Plasmodium falciparum, UniProt Q8I6V3); experiment: FRET assay for plasmepsin II; assay type: biochemical; conditions: pH 5, 37° C., substrate M-2120 1 μM
Method: (§1) The Fluorescence Resonance Energy Transfer (FRET) Assay for Plasmepsin II & IV and Human Cathepsin D & E:
(§2) The assay conditions are selected according to reports in the literature.
(§3) The FRET assay is performed in white polysorp plates (Fluoronunc, cat no 264 572) at 37° C. with a final volume of 80 μl.
(§4) The assay buffer is composed of 50 mM sodium acetate pH 5, 12.5% (w/v) glycerol, and 0.1% (w/v) BSA. The reaction consists of the following components: 60 μl assay buffer, 4 μl inhibitor (in DMSO), 8 μl substrate (M-2120 from BACHEM) to a final concentration of 1 μM and 8 μl enzyme (plasmepsin II, plasmepsin IV or cathepsin E to a final amount of 0.015 μg/ml per assay tube, cathepsin D to a final amount of 0.05 μg/ml per assay tube). The inhibitor is pre-diluted in DMSO in a dilution plate and six concentrations are prepared in duplicate. The compounds are usually tested at a final concentration varying from 1 nM to 100 μM. The substrate is diluted using 50% DMSO-50% assay buffer and the enzyme using assay buffer. The mixtures are then incubated for 3 h at 37° C. and the fluorescence is determined at 1 and 3 hour with a FluoroStar Galaxy from BMG using excitation and emission filters of 355 and 520 nm, respectively.
(§5) Auto-fluorescence of all the test substances is determined in assay buffer in the absence of substrate and enzyme and this value is subtracted from the final signal.
(§6) The inhibitory activity of the compounds is expressed as IC50, which represents the concentration of compound that inhibits 50% of the maximal (uninhibited) enzyme activity.

[2] = target: plasmepsin IV (Plasmodium falciparum, UniProt Q8IM16); experiment: FRET assay for plasmepsin IV; assay type: biochemical; conditions: pH 5, 37° C., substrate M-2120 1 μM
Method: as §1, §2, §3, §4, §5, §6

Chain of plasmepsin II (Q8I6V3 125-453): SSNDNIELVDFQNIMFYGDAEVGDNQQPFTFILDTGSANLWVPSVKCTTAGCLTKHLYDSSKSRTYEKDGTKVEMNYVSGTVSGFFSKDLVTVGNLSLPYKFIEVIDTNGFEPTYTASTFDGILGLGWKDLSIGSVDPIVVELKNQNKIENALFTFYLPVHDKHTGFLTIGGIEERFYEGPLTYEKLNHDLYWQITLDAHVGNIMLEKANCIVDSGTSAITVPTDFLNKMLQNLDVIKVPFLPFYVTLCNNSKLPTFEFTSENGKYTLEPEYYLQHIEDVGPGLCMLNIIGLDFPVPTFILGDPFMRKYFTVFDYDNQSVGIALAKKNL
Chain of plasmepsin IV (Q8IM16 122-449): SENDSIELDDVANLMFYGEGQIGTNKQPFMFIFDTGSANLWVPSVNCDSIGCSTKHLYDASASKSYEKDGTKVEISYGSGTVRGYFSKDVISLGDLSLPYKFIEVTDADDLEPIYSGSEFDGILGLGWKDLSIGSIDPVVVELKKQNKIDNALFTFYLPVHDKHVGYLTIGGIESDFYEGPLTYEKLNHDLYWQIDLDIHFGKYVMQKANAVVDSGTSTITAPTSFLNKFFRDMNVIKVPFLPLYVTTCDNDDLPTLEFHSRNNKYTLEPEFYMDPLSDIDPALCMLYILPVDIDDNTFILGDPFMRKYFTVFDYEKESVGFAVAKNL

Work on `CCCCCc1ccc(C(=O)N(Cc2ccc(C(=O)NCc3c(F)cccc3F)cc2)C2CCN(CCC(C)C)CC2)nc1` [Example 223, 5-Pentyl-pyridine-2-carboxylic acid [4-(2,6-difluoro-benzylcarbamoyl)-benzyl]-[1-(3-methyl-butyl)-piperidin-4-yl]-amide] yielded an IC50 [1] of 40 nM and an IC50 [2] of 1110 nM.

Work on `CCCCCc1ccc(C(=O)N(Cc2ccc(-c3cccc(C)c3)cc2)C2CCN(CCC(C)C)CC2)nc1` [Example 166, 5-Pentyl-pyridine-2-carboxylic acid (3′-methyl-biphenyl-4-ylmethyl)-[1-(3-methyl-butyl)-piperidin-4-yl]-amide] yielded an IC50 [1] of 16 nM and an IC50 [2] of 22 nM.

`CCCCCc1ccc(C(=O)N(Cc2ccc(N3CCSCC3)nc2)C2CCN(CCC(C)C)CC2)nc1` [Example 226] showed an IC50 [1] of 51 nM and an IC50 [2] of 359 nM.

With `CCCCCc1ccc(C(=O)N(Cc2ccc(-c3ccc(C(=O)N4CCCCC4)cc3)cc2)C2CCN(CCC(C)C)CC2)nc1` [Example 163] the IC50 [1] was 10 nM and the IC50 [2] was 635 nM.

With `CCCCCc1ccc(C(=O)N(Cc2ccc(-c3ccc(Cl)c(Cl)c3)o2)C2CCN(CCC(C)C)CC2)cc1` [Example 220, N-[5-(3,4-dichloro-phenyl)-furan-2-ylmethyl]-N-[1-(3-methyl-butyl)-piperidin-4-yl]-4-pentyl-benzamide] the IC50 [1] was 41 nM and the IC50 [2] was 56 nM.

`CCCCCc1ccc(C(=O)N(Cc2ccc(-c3ccc(C(=O)N4CCCCC4)cc3)cc2)C2CCN(CCC(C)C)CC2)s1` [Example 88] gave an IC50 [1] of 77 nM.
